Here are results for 34 compounds from patent publication US7414061B2, “Aryl-isoxazol-4-yl-imidazole derivatives” (Hoffmann-La Roche Inc., priority 2005, dated 2008).

This experiment concerns the target T1, GABA A receptor α5β3γ2 (hα5) (Homo sapiens, UniProt P18507+P31644).
T1 construct: expressed in transfected cells; host or cells: HEK293 (transiently transfected), membrane preparation
Nature of the experiment: [3H]flumazenil competition binding assay, human GABA A α5β3γ2. Here is the method:
The affinity of compounds at GABA A receptor subtypes was measured by competition for [3H]flumazenil (85 Ci/mmol; Roche) binding to HEK293 cells expressing rat (stably transfected) or human (transiently transfected) receptors of composition α1β3γ2, α2β3γ2, α3β3γ2 and α5β3γ2.
Cell pellets were suspended in Krebs-tris buffer (4.8 mM KCl, 1.2 mM CaCl2, 1.2 mM MgCl2, 120 mM NaCl, 15 mM Tris; pH 7.5; binding assay buffer), homogenized by polytron for ca. 20 sec on ice and centrifuged for 60 min at 4° C. (50000 g; Sorvall, rotor: SM24=20000 rpm). The cell pellets were resuspended in Krebs-tris buffer and homogenized by polytron for ca. 15 sec on ice. Protein was measured (Bradford method, Bio-Rad) and aliquots of 1 mL were prepared and stored at −80° C.
Radioligand binding assays were carried out in a volume of […] (96-well plates) which contained […] of cell membranes, [3H]flumazenil at a concentration of 1 nM for α1, α2, α3 subunits and 0.5 nM for α5 subunits and the test compound in the range of […]. Nonspecific binding was defined by 10^−5 M diazepam and typically represented less than 5% of the total binding. Assays were incubated to equilibrium for 1 hour at 4° C. and harvested onto GF/C uni-filters (Packard) by filtration using a Packard harvester and washing with ice-cold wash buffer (50 mM Tris; pH 7.5). After drying, filter-retained radioactivity was detected by liquid scintillation counting. Ki values were calculated using Excel-Fit (Microsoft) and are the means of two determinations.

[1] abbreviates: displacement of [3H]flumazenil (0.5 nM) from HEK293 cell membranes expressing α5β3γ2, means of two determinations, read-out: Ki[nM] hα5.

Read-outs that look alike come from different tables or passages of the source.

As to `Cc1onc(-c2ccccc2)c1-c1cn(-c2ccc(C(=O)NCC3CC3)cc2)cn1` [Example 71, N-Cyclopropylmethyl-4-[4-(5-methyl-3-phenyl-isoxazol-4-yl)-imidazol-1-yl]-benzamide], the Ki under setting [1] is 16.7 nM. In turn, `C#CCNC(=O)c1ccc(-n2cnc(-c3c(-c4ccccc4)noc3C)c2)cc1` [Example 72, 4-[4-(5-Methyl-3-phenyl-isoxazol-4-yl)-imidazol-1-yl]-N-prop-2-ynyl-benzamide] had a Ki of 13.2 nM. On to `Cc1onc(-c2ccccc2)c1-c1cn(-c2ccc(C(=O)NCCCN3CCOCC3)cc2)cn1` [Example 73, 4-[4-(5-Methyl-3-phenyl-isoxazol-4-yl)-imidazol-1-yl]-N-(3-morpholin-4-yl-propyl)-benzamide], for which the Ki under setting [1] turned out to be 14.6 nM. In the case of `Cc1onc(-c2ccccc2)c1-c1cn(-c2ccc(C(=O)NC3CC3)cc2)cn1` [Example 74, N-Cyclopropyl-4-[4-(5-methyl-3-phenyl-isoxazol-4-yl)-imidazol-1-yl]-benzamide], the Ki under setting [1] worked out at 5.1 nM. In the case of `Cc1onc(-c2ccccc2)c1-c1cn(-c2ccc(C(=O)NC3CCC3)cc2)cn1` [Example 75, N-Cyclobutyl-4-[4-(5-methyl-3-phenyl-isoxazol-4-yl)-imidazol-1-yl]-benzamide], the Ki under setting [1] was 2.7 nM. The same measure, in the same setting: for `Cc1onc(-c2ccccc2)c1-c1cn(-c2ccc(C(=O)NC3CCCC3)cc2)cn1` [Example 76, N-Cyclopentyl-4-[4-(5-methyl-3-phenyl-isoxazol-4-yl)-imidazol-1-yl]-benzamide] the value was 10.9 nM; for `Cc1onc(-c2ccccc2)c1-c1cn(-c2ccc(C(=O)NC3CCOCC3)cc2)cn1` [Example 77, 4-[4-(5-Methyl-3-phenyl-isoxazol-4-yl)-imidazol-1-yl]-N-(tetrahydro-pyran-4-yl)-benzamide], 27.3 nM. With `Cc1onc(-c2ccccc2)c1-c1cn(-c2ccc(C(=O)NCc3cccnc3)cc2)cn1` [Example 78, 4-[4-(5-Methyl-3-phenyl-isoxazol-4-yl)-imidazol-1-yl]-N-pyridin-3-ylmethyl-benzamide], the Ki under setting [1] came out at 12.8 nM. In the case of `Cc1onc(-c2ccccc2)c1-c1cn(-c2ccc(C(=O)NCc3ccncc3)cc2)cn1` [Example 79, 4-[4-(5-Methyl-3-phenyl-isoxazol-4-yl)-imidazol-1-yl]-N-pyridin-4-ylmethyl-benzamide], the inhibition constant (Ki) under setting [1] is 14 nM. The same measure, in the same setting: for `Cc1onc(-c2ccccc2)c1-c1cn(-c2cccc([N+](=O)[O-])c2)cn1` [Example 82, 5-Methyl-4-[1-(3-nitro-phenyl)-1H-imidazol-4-yl]-3-phenyl-isoxazole] the value was 19.5 nM; for `Cc1onc(-c2ccccc2)c1-c1cn(-c2cccc(C(=O)NC3CC3)c2)cn1` [Example 84, N-Cyclopropyl-3-[4-(5-methyl-3-phenyl-isoxazol-4-yl)-imidazol-1-yl]-benzamide], 31.8 nM; for `C#CCNC(=O)c1ccc(-n2cnc(-c3c(-c4cccc(F)c4)noc3C)c2)cc1` [Example 97, 4-{4-[3-(3-Fluoro-phenyl)-5-methyl-isoxazol-4-yl]-imidazol-1-yl}-N-prop-2-ynyl-benzamide], 10 nM. `Cc1onc(-c2cccc(F)c2)c1-c1cn(-c2ccc(C(=O)NC3CC3)cc2)cn1` [Example 98, N-Cyclopropyl-4-{4-[3-(3-fluoro-phenyl)-5-methyl-isoxazol-4-yl]-imidazol-1-yl}-benzamide]: under setting [1], the Ki came to 17.7 nM.

Turning to `Cc1onc(-c2cccc(F)c2)c1-c1cn(-c2ccc(C(=O)NCCO)cc2)cn1` [Example 101, 4-{4-[3-(3-Fluoro-phenyl)-5-methyl-isoxazol-4-yl]-imidazol-1-yl}-N-(2-hydroxy-ethyl)-benzamide], under setting [1], the Ki was determined as 27 nM. Still for that read-out and setting: the same measure for `Cc1onc(-c2cccc(F)c2)c1-c1cn(-c2ccc(C(=O)NCc3ccccn3)cc2)cn1` [Example 106, 4-{4-[3-(3-Fluoro-phenyl)-5-methyl-isoxazol-4-yl]-imidazol-1-yl}-N-pyridin-2-ylmethyl-benzamide]: 32.1 nM; for `Cc1onc(-c2ccc(F)cc2)c1-c1cn(-c2ccc(F)cc2)cn1` [Example 114, 3-(4-Fluoro-phenyl)-4-[1-(4-fluoro-phenyl)-1H-imidazol-4-yl]-5-methyl-isoxazole]: 31 nM.

Consider `Cc1onc(-c2ccc(F)cc2)c1-c1cn(-c2ccc(C#N)cc2)cn1` [Example 116, 4-{4-[3-(4-Fluoro-phenyl)-5-methyl-isoxazol-4-yl]-imidazol-1-yl}-benzonitrile], for which the Ki under setting [1] was found to be 13.2 nM. On the same count and under the same terms, the same measure for `Cc1onc(-c2ccc(F)cc2)c1-c1cn(-c2ccncc2)cn1` [Example 117, 4-{4-[3-(4-Fluoro-phenyl)-5-methyl-isoxazol-4-yl]-imidazol-1-yl}-pyridine]: 13.3 nM; for `Cc1cccc(-n2cnc(-c3c(-c4ccc(F)cc4)noc3C)c2)c1` [Example 118, 3-(4-Fluoro-phenyl)-5-methyl-4-(1-m-tolyl-1H-imidazol-4-yl)-isoxazole]: 29 nM; for `Cc1onc(-c2ccc(F)cc2)c1-c1cn(-c2cccc(F)c2)cn1` [Example 119, 3-(4-Fluoro-phenyl)-4-[1-(3-fluoro-phenyl)-1H-imidazol-4-yl]-5-methyl-isoxazole]: 33.7 nM. `Cc1onc(-c2ccc(F)cc2)c1-c1cn(-c2cccc(C#N)c2)cn1` [Example 122, 3-{4-[3-(4-Fluoro-phenyl)-5-methyl-isoxazol-4-yl]-imidazol-1-yl}-benzonitrile]: the Ki under setting [1] was determined as 25.6 nM.

With `Cc1onc(-c2ccc(F)cc2)c1-c1cn(-c2cccnc2)cn1` [Example 124, 3-{4-[3-(4-Fluoro-phenyl)-5-methyl-isoxazol-4-yl]-imidazol-1-yl}-pyridine], under setting [1], the Ki was 27.2 nM. The same measure, in the same setting: the same measure for `COC(=O)c1ccc(-n2cnc(-c3c(-c4ccc(F)cc4)noc3C)c2)cc1` [Example 125, 4-{4-[3-(4-Fluoro-phenyl)-5-methyl-isoxazol-4-yl]-imidazol-1-yl}-benzoic acid methyl ester]: 13.6 nM; for `Cc1onc(-c2ccc(F)cc2)c1-c1cn(-c2ccc(C(=O)NC3CCCC3)cc2)cn1` [Example 126, N-Cyclopentyl-4-{4-[3-(4-fluoro-phenyl)-5-methyl-isoxazol-4-yl]-imidazol-1-yl}-benzamide]: 11.9 nM; for `Cc1ccc(-n2cnc(-c3c(-c4ccc(F)cc4)noc3C)c2)cc1[N+](=O)[O-]` [Example 131, 3-(4-Fluoro-phenyl)-5-methyl-4-[1-(4-methyl-3-nitro-phenyl)-1H-imidazol-4-yl]-isoxazole]: 21.5 nM.

For the compound `CCc1onc(-c2ccc(F)cc2)c1-c1cn(-c2ccc(C(F)(F)F)cc2)cn1` [Example 133, 5-Ethyl-3-(4-fluoro-phenyl)-4-[1-(4-trifluoromethyl-phenyl)-1H-imidazol-4-yl]-isoxazole], under setting [1], the Ki is 29.8 nM. Take `CCc1onc(-c2ccc(F)cc2)c1-c1cn(-c2ccc([N+](=O)[O-])cc2)cn1` [Example 134, 5-Ethyl-3-(4-fluoro-phenyl)-4-[1-(4-nitro-phenyl)-1H-imidazol-4-yl]-isoxazole]: the Ki under setting [1] came out at 12.7 nM. Consider `CC(=O)c1ccc(-n2cnc(-c3c(-c4ccccc4)noc3C3CC3)c2)cc1` [Example 135, 1-{4-[4-(5-Cyclopropyl-3-phenyl-isoxazol-4-yl)-imidazol-1-yl]-phenyl}-ethanone], for which the Ki under setting [1] was 1.64 nM. As for `O=[N+]([O-])c1ccc(-n2cnc(-c3c(-c4ccccc4)noc3C3CC3)c2)cc1` [Example 136, 5-Cyclopropyl-4-[1-(4-nitro-phenyl)-1H-imidazol-4-yl]-3-phenyl-isoxazole], the Ki under setting [1] amounted to 1.71 nM.

Consider `N#Cc1ccc(-n2cnc(-c3c(-c4ccccc4)noc3CO)c2)cc1` [Example 139, 4-[4-(5-Hydroxymethyl-3-phenyl-isoxazol-4-yl)-imidazol-1-yl]-benzonitrile], for which, under setting [1], the Ki came to 28.2 nM. Same read-out and setting: the same measure for `CC(=O)c1ccc(-n2cnc(-c3c(-c4ccc(F)cc4)noc3CO)c2)cc1` [Example 140, 1-(4-{4-[3-(4-Fluoro-phenyl)-5-hydroxymethyl-isoxazol-4-yl]-imidazol-1-yl}-phenyl)-ethanone]: 9.8 nM; for `Cc1onc(-c2ccccc2)c1-c1cn(-c2ccccc2)c(COCc2ccccc2)n1` [Example 146, 4-(2-Benzyloxymethyl-1-phenyl-1H-imidazol-4-yl)-5-methyl-3-phenyl-isoxazole]: 17.1 nM. `Cc1onc(-c2ccccc2)c1-c1cn(-c2ccc([N+](=O)[O-])cc2)c(CO)n1` [Example 147, [4-(5-Methyl-3-phenyl-isoxazol-4-yl)-1-(4-nitro-phenyl)-1H-imidazol-2-yl]-methanol]: the inhibitory constant (Ki) under setting [1] turned out to be 18.1 nM. Regarding `Cc1onc(-c2ccccc2)c1-c1cn(-c2ccc([N+](=O)[O-])cc2)c(CCl)n1` [Example 148, 4-[2-Chloromethyl-1-(4-nitro-phenyl)-1H-imidazol-4-yl]-5-methyl-3-phenyl-isoxazole], under setting [1], the Ki worked out at 23.3 nM.

What is called Ki is the dissociation constant of the complex between target and ligand, obtained from inhibition or displacement.
